# Like-named read-outs stand apart in the source and are kept apart here.
# Key:
# [1] = molecular target: EGFR L858R/T790M mutant Ba/F3 cells (Homo sapiens, UniProt P00533, T790M/L858R, cells depend on it); experiment: Ba/F3 cell proliferation (Cell Titer Glo); format: cell-based, murine; details: 72 hours
# Description: All cell lines were maintained in RPMI 1640 (Cellgro; Mediatech Inc., Herndon, CA) supplemented with 10% FBS, 100 units/mL penicillin, 100 units/mL streptomycin. The EGFR I941R mutation was introduced via site directed mutagenesis using the Quick Change Site-Directed Mutagenesis kit (Stratagene; La Jolla, CA) according to the manufacturer's instructions. All constructs were confirmed by DNA sequencing. The constructs were shuttled into the retroviral vector JP1540 using the Cre-recombination system (Agilent Technologies, Santa Clara, CA). Ba/F3 cells were then infected with retrovirus per standard protocols, as described previously (Zhou, et al, Nature 2009). Stable clones were obtained by selection in puromycin (2 μg/ml).
# Growth and inhibition of growth was assessed by the Cell Titer Glo assay (Promega, Madison, WI) and was performed according to the manufacturer's instructions. The Cell Titer Glo assay is a luminescence-based method used to determine the number of viable cells based on quantitation of the ATP present, which is directly proportional to the amount of metabolically active cells present. […] All experimental points were set up in triplicates in 384-well plates and all experiments were repeated at least three times. […] The curves were fitted using a non-linear regression model with a sigmoidal dose response.
# EGFR L858R/T790M = EGFR L858R/T790M (Homo sapiens, UniProt P00533, L858R/T790M); experiment: HTRF-based EGFR biochemical assay (L858R/T790M); details: 100 μM ATP, enzyme 0.02 nM
# Procedure: (§1) EGFR biochemical activity measurements were carried out using the homogeneous time-resolved fluorescence (HTRF) assay (Cisbio). Inhibitors and DMSO normalizations were first dispensed to empty black low-volume 384-well plates (Corning) with D300 digital liquid dispenser (HP). All reactions were carried out at room temperature and solutions were added to plates with a Multidrop Combi Reagent Dispenser (ThermoFisher). The reaction mixture (10 μL final volume) contained 1 μM tyrosine kinase peptide-biotin substrate and mutant EGFR in a reaction buffer (50 mM HEPES pH 7.0, 5 mM MgCl2, 1 mM MnCl2, 0.01% BSA, 2 mM TCEP, 0.1 mM NaVO4). […] Enzyme reaction solution (2× concentrations, 5 μL) was added to 384-well plates containing compounds and incubated for 30 mins. Enzyme reactions were initiated with the addition of 5 μL of ATP to a final concentration of 100 μM and reacted for 20 mins.
# EGFR L858R = EGFR L858R (Homo sapiens, UniProt P00533, L858R); experiment: HTRF-based EGFR biochemical assay (L858R); details: 100 μM ATP, enzyme 0.1 nM
# Procedure: as §1, with “20 mins. Reactions were quenched with the addition of 10 μL of phospho-tyrosine antibody-Europium(III) cryptate (1-to-180 volume ratio) and Streptavidin-XL665 (46.7 nM) in EDTA-containing detection buffer, then incubated at room temperature for 1 hour, and read with a PHERAstar plate reader (excitation=337 nm, emission=620 nm and 665 nm).” for “20 mins.”
# [2] = in combination with 1 μg/ml cetuximab, read-out: Cell IC50 BaF3 L858R/T790M compound + cetuximab
# [3] = single agent, read-out: Cell IC50 EGFR BaF3 L858R/T790M
# EGFR L858R/T790M mutant Ba/F3 cells, sequence (P00533 whole entry T790M/L858R): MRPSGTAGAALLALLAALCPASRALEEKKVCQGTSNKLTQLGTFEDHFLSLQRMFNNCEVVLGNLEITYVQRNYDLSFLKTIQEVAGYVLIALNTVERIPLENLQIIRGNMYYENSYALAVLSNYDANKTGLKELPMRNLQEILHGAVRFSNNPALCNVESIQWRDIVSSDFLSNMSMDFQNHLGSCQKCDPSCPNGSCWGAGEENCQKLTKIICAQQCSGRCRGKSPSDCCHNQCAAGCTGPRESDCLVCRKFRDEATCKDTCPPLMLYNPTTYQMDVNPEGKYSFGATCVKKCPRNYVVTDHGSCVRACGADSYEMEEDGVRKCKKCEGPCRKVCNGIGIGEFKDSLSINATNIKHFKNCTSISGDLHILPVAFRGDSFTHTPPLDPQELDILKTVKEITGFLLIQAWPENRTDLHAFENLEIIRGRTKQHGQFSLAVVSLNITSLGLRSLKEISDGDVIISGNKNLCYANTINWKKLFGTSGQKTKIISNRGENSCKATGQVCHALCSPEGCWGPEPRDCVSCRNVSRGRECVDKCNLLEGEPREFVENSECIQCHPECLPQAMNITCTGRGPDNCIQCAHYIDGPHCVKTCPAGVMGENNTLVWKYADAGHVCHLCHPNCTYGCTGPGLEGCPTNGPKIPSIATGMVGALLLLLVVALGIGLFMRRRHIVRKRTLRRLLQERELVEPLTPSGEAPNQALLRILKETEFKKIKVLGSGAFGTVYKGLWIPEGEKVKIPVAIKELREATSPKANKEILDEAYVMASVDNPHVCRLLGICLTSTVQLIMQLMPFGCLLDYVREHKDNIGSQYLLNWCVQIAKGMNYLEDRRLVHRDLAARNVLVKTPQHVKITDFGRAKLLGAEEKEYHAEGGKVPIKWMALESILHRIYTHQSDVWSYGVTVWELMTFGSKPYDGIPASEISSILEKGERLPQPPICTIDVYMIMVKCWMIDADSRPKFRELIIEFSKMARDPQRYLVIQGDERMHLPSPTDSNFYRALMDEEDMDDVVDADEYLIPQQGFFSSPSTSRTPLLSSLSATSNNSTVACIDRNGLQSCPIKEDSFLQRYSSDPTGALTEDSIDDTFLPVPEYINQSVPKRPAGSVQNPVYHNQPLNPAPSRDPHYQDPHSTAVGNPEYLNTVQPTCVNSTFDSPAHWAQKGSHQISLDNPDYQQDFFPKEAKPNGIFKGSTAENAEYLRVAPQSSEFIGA
# EGFR L858R/T790M, sequence (P00533 25-1210 T790M/L858R): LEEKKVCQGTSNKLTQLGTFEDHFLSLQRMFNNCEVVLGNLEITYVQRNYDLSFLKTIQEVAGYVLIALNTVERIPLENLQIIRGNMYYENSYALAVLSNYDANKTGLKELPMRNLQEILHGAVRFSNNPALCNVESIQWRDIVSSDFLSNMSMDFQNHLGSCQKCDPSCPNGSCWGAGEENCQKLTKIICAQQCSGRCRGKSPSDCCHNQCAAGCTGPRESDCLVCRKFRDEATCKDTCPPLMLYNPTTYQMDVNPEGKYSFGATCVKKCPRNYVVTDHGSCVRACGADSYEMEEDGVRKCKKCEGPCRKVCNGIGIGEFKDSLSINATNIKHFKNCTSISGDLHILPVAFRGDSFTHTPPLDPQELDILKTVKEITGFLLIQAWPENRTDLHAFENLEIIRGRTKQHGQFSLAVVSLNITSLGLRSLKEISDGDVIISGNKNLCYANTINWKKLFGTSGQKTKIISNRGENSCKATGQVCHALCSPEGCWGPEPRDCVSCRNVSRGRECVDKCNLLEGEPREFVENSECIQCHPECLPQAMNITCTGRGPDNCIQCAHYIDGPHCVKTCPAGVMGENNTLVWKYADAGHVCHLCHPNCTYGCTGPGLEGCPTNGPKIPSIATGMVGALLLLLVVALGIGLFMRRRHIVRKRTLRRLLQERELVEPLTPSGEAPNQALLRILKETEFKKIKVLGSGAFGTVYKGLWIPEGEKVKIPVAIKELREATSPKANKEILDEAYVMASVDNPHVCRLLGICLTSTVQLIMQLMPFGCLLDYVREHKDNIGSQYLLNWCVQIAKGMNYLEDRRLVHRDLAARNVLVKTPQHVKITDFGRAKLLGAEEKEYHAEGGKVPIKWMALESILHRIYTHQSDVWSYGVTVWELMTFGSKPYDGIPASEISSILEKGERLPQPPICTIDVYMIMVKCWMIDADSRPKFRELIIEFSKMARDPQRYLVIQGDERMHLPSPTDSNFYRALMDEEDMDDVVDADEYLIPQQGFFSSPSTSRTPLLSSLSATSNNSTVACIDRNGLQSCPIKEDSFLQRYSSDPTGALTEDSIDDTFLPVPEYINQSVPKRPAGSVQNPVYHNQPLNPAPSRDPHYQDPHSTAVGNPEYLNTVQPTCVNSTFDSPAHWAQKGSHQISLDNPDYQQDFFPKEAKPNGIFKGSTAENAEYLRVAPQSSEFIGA
# EGFR L858R, sequence (P00533 25-1210 L858R): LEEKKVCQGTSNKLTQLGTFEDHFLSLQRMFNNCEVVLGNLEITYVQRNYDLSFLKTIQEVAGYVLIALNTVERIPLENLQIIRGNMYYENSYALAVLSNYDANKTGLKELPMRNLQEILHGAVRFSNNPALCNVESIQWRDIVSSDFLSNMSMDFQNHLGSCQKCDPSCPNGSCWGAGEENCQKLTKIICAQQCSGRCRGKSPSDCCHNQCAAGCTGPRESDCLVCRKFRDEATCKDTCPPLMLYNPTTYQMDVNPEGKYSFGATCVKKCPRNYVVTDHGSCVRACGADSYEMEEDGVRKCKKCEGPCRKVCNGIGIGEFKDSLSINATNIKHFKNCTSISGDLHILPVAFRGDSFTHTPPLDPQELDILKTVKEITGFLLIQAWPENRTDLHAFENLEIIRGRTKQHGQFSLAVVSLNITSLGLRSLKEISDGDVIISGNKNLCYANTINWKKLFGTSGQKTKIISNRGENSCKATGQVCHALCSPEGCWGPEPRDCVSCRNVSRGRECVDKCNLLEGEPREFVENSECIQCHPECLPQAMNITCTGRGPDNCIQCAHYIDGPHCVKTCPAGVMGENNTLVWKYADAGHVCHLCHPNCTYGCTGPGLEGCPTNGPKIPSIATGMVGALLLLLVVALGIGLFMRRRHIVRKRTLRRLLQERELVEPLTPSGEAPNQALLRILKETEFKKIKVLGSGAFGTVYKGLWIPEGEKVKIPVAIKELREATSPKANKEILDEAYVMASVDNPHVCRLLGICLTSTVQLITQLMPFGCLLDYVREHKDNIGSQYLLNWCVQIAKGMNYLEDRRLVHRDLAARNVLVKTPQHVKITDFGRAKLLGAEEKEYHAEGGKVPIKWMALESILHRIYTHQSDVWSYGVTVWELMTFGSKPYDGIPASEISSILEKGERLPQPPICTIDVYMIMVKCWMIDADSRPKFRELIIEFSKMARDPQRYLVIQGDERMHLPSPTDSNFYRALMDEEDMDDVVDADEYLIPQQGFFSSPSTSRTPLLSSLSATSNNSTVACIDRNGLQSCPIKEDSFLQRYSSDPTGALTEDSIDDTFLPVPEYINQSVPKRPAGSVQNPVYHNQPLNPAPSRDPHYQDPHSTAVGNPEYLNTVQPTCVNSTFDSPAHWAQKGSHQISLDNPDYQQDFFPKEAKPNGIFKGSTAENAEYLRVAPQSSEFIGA
"GI50 [1, 2] [µM]","GI50 [1, 3] [µM]",IC50 (EGFR L858R/T790M) [µM],IC50 (EGFR L858R) [µM],SMILES
0.033,3.16,0.0004,0.002,"CN1CCC(c2ccc(-c3ccc4ncn(C(C(=O)Nc5nccs5)c5c(O)cccc5F)c(=O)c4c3)cc2)CC1 (centres unmarked) [Compound 086, 2-(2-Fluoro-6-hydroxyphenyl)-2-(6-(4-(1-methylpiperidin-4-yl)phenyl)-4-oxoquinazolin-3(4H)-yl)-N-(thiazol-2-yl)acetamide]"
0.35,> 10,0.011,0.101,"O=C(Nc1nccs1)C(c1ccccc1)n1cc(F)c2ccc(Br)cc2c1=O (centres unmarked) [Compound 035, 2-(7-Bromo-4-fluoro-1-oxo-isoquinolin-2(1H)-yl)-2-phenyl-N-(thiazol-2-yl)acetamide]"
> 10,> 10,0.01,> 1,"O=C(Nc1nccs1)C(c1ccccc1)n1ncc2cc(Br)ccc2c1=O (centres unmarked) [Compound 009, 2-(6-Bromo-1-oxophthalazin-2(1H)-yl)-2-phenyl-N-(thiazol-2-yl)-acetamide]"
0.021,1.58,0.0004,0.004,"CN1CCC(c2ccc(-c3ccc4ncn(C(C(=O)Nc5ccccn5)c5cccc(F)c5)c(=O)c4c3)cc2)CC1 (centres unmarked) [Compound 032, 2-(3-Fluorophenyl)-2-(6-(4-(1-methyl-piperidin-4-yl)phenyl)-4-oxo-quinazolin-3(4H)-yl)-N-(pyridin-2-yl)-acetamide]"
> 10,> 10,0.22,> 1,"O=C(Nc1nccs1)C(c1cccnc1)n1cnc2ccc(Br)cc2c1=O (centres unmarked) [Compound 062, 2-(6-Bromo-4-oxoquinazolin-3(4H)-yl)-2-(pyridin-3-yl)-N-(thiazol-2-yl)-acetamide]"
0.012,0.93,0.002,0.008,"CN1CCC(c2ccc(-c3cnc4ncn(C(C(=O)Nc5nccs5)c5ccccc5)c(=O)c4c3)cc2)CC1 (centres unmarked) [Compound 058, 2-(6-(4-(1-Methylpiperidin-4-yl)phenyl)-4-oxopyrido[2,3-d]-pyrimidin-3(4H)-yl)-2-phenyl-N-(thiazol-2-yl)acetamide]"
0.044,3.36,0.0007,0.008,"CN1CCN(c2ccc(-c3ccc4ncn(C(C(=O)Nc5nccs5)c5ccccc5F)c(=O)c4c3F)cc2)CC1 (centres unmarked) [Compound 076, 2-(5-Fluoro-6-(4-(4-methyl-piperazin-1-yl)phenyl)-4-oxo-quinazolin-3(4H)-yl)-2-(2-fluoro-phenyl)-N-(thiazol-2-yl)acetamide]"
0.02,1.19,0.001,0.003,"CN1CCC(c2ccc(-c3ccc4c(=O)n(C(C(=O)Nc5nccs5)c5ccccc5)ccc4c3)cc2)CC1 (centres unmarked) [Compound 016, 2-(6-(4-(1-Methylpiperidin-4-yl)-phenyl)-1-oxoisoquinolin-2(1H)-yl)-2-phenyl-N-(thiazol-2-yl)acetamide]"
0.62,4.2,0.001,0.008,COc1cccc(F)c1C(C(=O)Nc1nccs1)n1cnc2ccc(-c3ccc(C4CCN(C)CC4)cc3)cc2c1=O (centres unmarked) [Compound 078]
2,> 10,0.016,0.245,"O=C(Nc1nccs1)C(c1ccccc1)n1ccc2cc(Br)ccc2c1=O (centres unmarked) [Compound 003, 2-(6-Bromo-1-oxoisoquinolin-2(1H)-yl)-2-phenyl-N-(thiazol-2-yl)-acetamide]"
0.79,2.46,0.283,> 1,"Cc1nc2ccc(-c3ccc(C4CCN(C)CC4)cc3)cc2c(=O)n1C(C(=O)Nc1nccs1)c1ccccc1 (centres unmarked) [Compound 044, 2-(2-Methyl-6-(4-(1-methylpiperidin-4-yl)phenyl)-4-oxoquinazolin-3(4H)-yl)-2-phenyl-N-(thiazol-2-yl)acetamide]"

# Further lines, the compound ahead of its results:
SMILES,"GI50 [1, 2] [µM]","GI50 [1, 3] [µM]",IC50 (EGFR L858R/T790M) [µM],IC50 (EGFR L858R) [µM]
"Cc1nc2cc(-c3ccc(C4CCN(C)CC4)cc3)ccc2c(=O)n1C(C(=O)Nc1nccs1)c1ccccc1 (centres unmarked) [Compound 054, 2-(2-Methyl-7-(4-(1-methylpiperidin-4-yl)phenyl)-4-oxoquinazolin-3(4H)-yl)-2-phenyl-N-(thiazol-2-yl)acetamide]",0.41,2.48,0.042,0.091
"CN1CCC(c2ccc(-c3ccc4ncn(C(C(=O)Nc5nccs5)c5cccc(F)c5)c(=O)c4n3)cc2)CC1 (centres unmarked) [Compound 069, 2-(3-Fluorophenyl)-2-(6-(4-(1-methylpiperidin-4-yl)phenyl)-4-oxo-pyrido[3,2-d]pyrimidin-3(4H)-yl)-N-(thiazol-2-yl)acetamide]",0.028,2.81,0.0005,0.007
"CN1CCN(c2ccc(-c3ccc4ncn(C(C(=O)Nc5nccs5)c5ccccc5)c(=O)c4n3)cc2)CC1 (centres unmarked) [Compound 072, 2-(6-(4-(4-Methylpiperazin-1-yl)-phenyl)-4-oxopyrido[3,2-d]-pyrimidin-3(4H)-yl)-2-phenyl-N-(thiazol-2-yl)acetamide]",0.055,1.6,0.001,0.012
"CN1CCC(c2ccc(-c3cc(F)c4ncn(C(C(=O)Nc5nccs5)c5ccccc5)c(=O)c4c3)cc2)CC1 (centres unmarked) [Compound 060, 2-(8-Fluoro-6-(4-(1-methylpiperidin-4-yl)phenyl)-4-oxoquinazolin-3-(4H)-yl)-2-phenyl-N-(thiazol-2-yl)-acetamide]",0.009,0.71,0.0006,0.004
"CN1CCC(c2ccc(-c3ccc4ncn(C(C(=O)Nc5nccs5)c5cccc(F)c5)c(=O)c4c3)cc2)CC1 (centres unmarked) [Compound 030, 2-(3-Fluorophenyl)-2-(6-(4-(1-methyl-piperidin-4-yl)phenyl)-4-oxo-quinazolin-3(4H)-yl)-N-(thiazol-2-yl)-acetamide]",0.004,0.8,0.001,0.007
"CN1CCC(c2ccc(-c3ccc4ncn(C(C(=O)Nc5nccs5)c5ccccc5F)c(=O)c4c3F)cc2)CC1 (centres unmarked) [Compound 075, 2-(5-Fluoro-6-(4-(1-methylpiperidin-4-yl)phenyl)-4-oxoquinazolin-3-(4H)-yl)-2-(2-fluorophenyl)-N-(thiazol-2-yl)acetamide]",0.007,1.03,0.0001,0.001
"CN1CCN(c2ccc(-c3ccc4c(=O)n(C(C(=O)Nc5nccs5)c5ccccc5)cnc4c3)cc2)CC1 (centres unmarked) [Compound 013, 2-(7-(4-(4-Methylpiperazin-1-yl)-phenyl)-4-oxoquinazolin-3(4H)-yl)-2-phenyl-N-(thiazol-2-yl)acetamide]",0.38,2,0.003,0.014
"CN1CCC(c2ccc(-c3ccc4ncn(C(C(=O)Nc5nccs5)c5ccccn5)c(=O)c4c3F)cc2)CC1 (centres unmarked) [Compound 068, 2-(5-Fluoro-6-(4-(1-methylpiperidin-4-yl)phenyl)-4-oxoquinazolin-3(4H)-yl)-2-(pyridin-2-yl)-N-(thiazol-2-yl)-acetamide]",0.018,1.56,0.0007,0.005
"CN1CCC(c2ccc(-c3ccc4ncn(C(C(=O)Nc5ccccn5)c5ccccc5)c(=O)c4c3)cc2)CC1 (centres unmarked) [Compound 038, 2-(6-(4-(1-Methylpiperidin-4-yl)-phenyl)-4-oxaquinazolin-3(4H)-yl)-2-phenyl-N-(pyridin-2-yl)acetamide]",0.057,1.86,0.002,0.009

# Source: patent publication US12622909B2, “Allosteric EGFR inhibitors and methods of use thereof” (Dana-Farber Cancer Institute, Inc., priority 2019, dated 2026)
